In PMC7282811:
Like-named read-outs stand apart in the source and are kept apart here.

Key:
H3R = target: T1, H3R (Mus musculus, UniProt P58406); experiment: tissue or organelle; set-up: species or system brain tissue of 8-month-old Hdh^Q7/Q7 or Hdh^Q7/Q111 mice; radioligand binding to mouse brain region membranes, KD from saturation and competition curves
T1 construct: gene Hrh3; native receptor, endogenous in mouse brain tissue membranes
Experimental: (§1) Supplementary file elife-51093-supp2.docx: Supplementary file 2. H3R and D1R binding parameters in different brain regions from 8-month-old Hdh^Q7/Q7 and Hdh^Q7/Q111 mice. Mouse striatal, cortical or hippocampal tissue were homogenized in 50 mM Tris-HCl buffer and ligand binding was performed with membrane suspension (see online methods). Binding parameters from saturation and competition curves were obtained using Grafit software by fitting the binding data to the equation previously deduced (equation (3) in [Gracia et al., 2013]. Data are mean ± SEM of experiments performed per triplicate (n = 6 Hdh^Q7/Q7 and n = 5 Hdh^Q7/Q111). To test whether D1R-H3R heteromers can indeed be targets for treating HD, we investigated their expression and function in the striatum, cerebral cortex and hippocampus of a widely accepted preclinical model of HD, the heterozygous Hdh^Q7/Q111 mutant knock-in mice, and their wild-type Hdh^Q7/Q7 littermates ([Giralt et al., 2012]; [Puigdellívol et al., 2015]). By PLA we confirmed that both Hdh^Q7/Q7 and Hdh^Q7/Q111 mice display D1R-H3R heteromers at 2 months (mo) (Figure 2—figure supplement 1) and four mo (Figure 2A,B) of age in all brain regions tested. […] Heteromer expression was similar in all brain areas and no differences were observed between genotypes at 4 mo of age (Figure 2B). […] Although at 8 mo of age we detected a partial decrease in striatal D1R expression in Hdh^Q7/Q111 compared with Hdh^Q7/Q7 mice using ligand binding experiments (Supplementary file 2), the loss of heteromer expression is not due to a complete loss of receptor expression since by radioligand binding (Supplementary file 2) and mRNA expression analysis (Supplementary file 3) both receptors continue to be expressed.

[1] = target: T2, dopamine D1 receptor (D1R) (Mus musculus, UniProt Q61616); set-up: species or system STHdh^Q7 or STHdh^Q111 mouse striatal cells; radioligand binding to striatal cell membranes, KD from saturation and competition curves; details: STHdh^Q111 cell membranes; binder
T2 construct: gene Drd1; native full-length receptor, endogenous in membranes of STHdh^Q7 mouse striatal cells; part may be in D1R-H3R heteromers
T2 sequence (Q61616 whole entry): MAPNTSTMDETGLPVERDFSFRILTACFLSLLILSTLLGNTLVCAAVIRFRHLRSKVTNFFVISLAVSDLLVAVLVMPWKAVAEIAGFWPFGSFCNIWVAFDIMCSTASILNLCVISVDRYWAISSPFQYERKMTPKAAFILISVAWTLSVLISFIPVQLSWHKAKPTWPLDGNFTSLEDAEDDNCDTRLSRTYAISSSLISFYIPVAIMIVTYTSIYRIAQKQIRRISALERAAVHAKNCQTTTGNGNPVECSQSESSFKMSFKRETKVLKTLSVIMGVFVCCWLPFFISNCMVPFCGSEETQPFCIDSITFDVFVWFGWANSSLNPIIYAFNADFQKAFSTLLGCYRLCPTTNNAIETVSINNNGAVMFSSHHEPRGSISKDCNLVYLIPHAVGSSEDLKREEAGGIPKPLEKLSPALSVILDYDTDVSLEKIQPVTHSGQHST
Experimental: Supplementary file elife-51093-supp1.docx: Supplementary file 1. H3R and D1R binding parameters in STHdh^Q7, STHdh^Q111 cells. Striatal cells were homogenized in 50 mM Tris-HCl buffer and ligand binding was performed with membrane suspension (see materials and methods). Binding parameters from saturation and competition curves were obtained using Grafit software by fitting the binding data to the equation previously deduced (equation (3) in [Gracia et al., 2013]. Data are mean ± SEM of experiments performed per triplicate.

[2] = target: T2, dopamine D1 receptor (D1R); experiment: radioligand saturation binding, cell membranes, filtration; details: labelled compound; STHdh^Q7 cell membranes; 50 mM Tris-HCl pH 7.4, 10 mM MgCl2, 25 °C; nonspecific with 30 µM unlabelled ligand; read-out: binding parameters
Experimental: radioligand saturation binding, cell membranes, filtration on dopamine D1 receptor (D1R) | membranes were incubated with increasing free concentrations of [^3H]

D1R = target: T3, D1R (Mus musculus, UniProt Q61616); experiment: tissue or organelle; set-up: species or system brain tissue of 8-month-old Hdh^Q7/Q7 or Hdh^Q7/Q111 mice; radioligand binding to mouse brain region membranes, KD from saturation and competition curves
T3 construct: gene Drd1; native receptor, endogenous in mouse brain tissue membranes
T3 sequence (Q61616 whole entry): as above
Experimental: as §1

[3] = Cortex, 8-month-old Hdh^Q7/Q7 mice
[4] = Hippocampus, 8-month-old Hdh^Q7/Q7 mice
[5] = Hippocampus, 8-month-old Hdh^Q7/Q111 mice
[6] = Striatum, 8-month-old Hdh^Q7/Q7 mice
[7] = Striatum, 8-month-old Hdh^Q7/Q111 mice

T1 sequence (P58406 whole entry): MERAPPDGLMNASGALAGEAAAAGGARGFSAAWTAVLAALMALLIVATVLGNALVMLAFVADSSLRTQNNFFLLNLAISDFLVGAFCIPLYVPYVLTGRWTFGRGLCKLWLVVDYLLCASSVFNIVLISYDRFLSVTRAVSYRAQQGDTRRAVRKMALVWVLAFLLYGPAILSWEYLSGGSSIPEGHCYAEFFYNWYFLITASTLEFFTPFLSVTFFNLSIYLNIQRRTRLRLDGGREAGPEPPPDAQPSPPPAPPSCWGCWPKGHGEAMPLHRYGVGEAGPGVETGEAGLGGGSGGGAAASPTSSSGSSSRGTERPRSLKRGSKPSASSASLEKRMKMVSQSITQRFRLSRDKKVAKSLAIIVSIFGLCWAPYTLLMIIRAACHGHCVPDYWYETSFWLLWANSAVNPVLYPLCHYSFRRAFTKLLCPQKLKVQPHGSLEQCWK

In the case of C[C@@H](N)Cc1c[nH]cn1 [[^3H] R-α-methyl histamine], the Kd (H3R; [3]) is reported as 0.22 ± 0.02 nM, the Kd (H3R; Cortex, 8-month-old Hdh^Q7/Q111 mice) is reported as 0.24 ± 0.04 nM and the Kd (H3R; [4]) is reported as 0.2 ± 0.01 nM. The Kd (H3R; [5]) was 0.37 ± 0.1 nM, the Kd (H3R; [6]) was 0.27 ± 0.03 nM and the Kd (H3R; [7]) was 0.26 ± 0.03 nM.

Work on CN1CCc2cc(Cl)c(O)cc2[C@@H](c2ccccc2)C1 [[^3H] SCH 23390] yielded a Kd [1] of 0.16 ± 0.08 nM, a Kd [2] of 0.3 ± 0.1 nM and a Kd (D1R; [3]) of 0.05 ± 0.01 nM. For the same molecule, the Kd (D1R; [4]) was 0.03 ± 0.02 nM, the Kd (D1R; [5]) was 0.09 ± 0.07 nM and the Kd (D1R; [6]) was 0.17 ± 0.02 nM. It also gave a Kd (D1R; [7]) of 0.11 ± 0.01 nM.
